Like-named read-outs stand apart in the source and are kept apart here.
What was measured:
[1] = target: T1, Mr 88,000 proteinase (88/92 kd type IV collagenolytic metalloproteinase) (Rattus norvegicus, UniProt P50282); format: biochemical
T1 construct: type IV collagenolytic enzymes secreted by mammary adenocarcinoma cells; endogenous in cells; host or cells: rat 13762NF mammary adenocarcinoma cell clones (MTF7-T35.3, MTC, MTLn3-T44.5), serum-free conditioned medium
Procedure: (§1) Identification of type IV collagenolytic enzymes secreted by mammary adenocarcinoma cells was performed by electrophoresis of serum-free conditioned media in a type IV collagen-embedded polyacrylamide gel followed by incubation and Coomassie blue staining, based on the methods described by Heussen and Dowdle (24). Type IV procollagen was purified from Engelbreth-Holm-Sworn tumors, dissolved in 0.5 M acetic acid or bovine lens capsule type IV collagen pepsin fragments (Seikagaku America, St. Petersburg, FL) in HCl at pH 3.0, neutralized with Tris and immediately dissolved in 2% SDS. After removing undissolved materials by a brief centrifugation at 18,000 x g, SDS-solubilized type IV collagen was copolymerized with 7.5% acrylamide. In some experiments, each of the following proteins was also embedded in SDS-polyacrylamide gels: rat hemoglobin; rat immunoglobulin G; bovine serum ablumin; bovine plasma fibronectin; bovine alpha-casein; and gelatin from swine skin (Sigma Chemical, St. Louis, MO). Electrophoresis of serum, or other samples such as one obtained from conditioned media, was carried out by the method of Laemmli (25) in polyacrylamide gels containing 0.5 to 1.0 mg/ml of type IV collagen.
(§2) In the case of serum samples, serum (2.5 ul) was mixed with the same volume of sodium dodecyl sulfate sample buffer without reducing agents, and immediately subjected to electrophoresis in a 7.5% polyacrylamide gel containing the protein substrates. After electrophoresis, gels were rinsed twice with 2.5% Triton X-100 in 50 mM Tris-HCl buffer, pH 7.5, and incubated at 37`C for 16 h in 0.15 M NaCl, 10 mM CaCl₂ and 50 mM Tris-HCl buffer, pH 7.5, containing 0.05% NaN₃. Gels were stained with 0.05% Coomassie blue, 10% isopropanol, and 10% acetic acid in H₂0 and these destained with 10% isopropanol and 10% acetic acid in H₂0. Type IV collagenolytic enzymes were detected as transparent bands on the blue background of Coomassie blue-stained slab gels.
(§3) In order to conduct zymography using samples obtained by the preparation of conditioned media, the following steps were performed. Mammary adenocarcinoma cells (1 x 10⁶ cells) were seeded in a 10-cm tissue culture plate and cultured for 24 h in […] complete medium containing 10% heat-inactivated FBS. The cells were extensively washed with DPBS and then further cultured in 10 ml of serum-free complete medium. The serum-free culture supernatants were withdrawn and sequentially centrifuged at 800 x g and 18,000 x g, and then aliquots of the supernatants were concentrated with Centricon 30 concentrators (Amicon, Danvers, MA) and mixed with SDS sample buffer.

[2] = system: Mr 64,000 proteinase; format: biochemical, rat
Procedure: as §1, §2, §3

[3] = 10 mM in incubation buffer, conditioned media from 48 h cultures
[4] = 2 mM in incubation buffer, conditioned media from 48 h cultures
[5] = 5 mM in incubation buffer, conditioned media from 48 h cultures

T1 sequence (P50282 108-708): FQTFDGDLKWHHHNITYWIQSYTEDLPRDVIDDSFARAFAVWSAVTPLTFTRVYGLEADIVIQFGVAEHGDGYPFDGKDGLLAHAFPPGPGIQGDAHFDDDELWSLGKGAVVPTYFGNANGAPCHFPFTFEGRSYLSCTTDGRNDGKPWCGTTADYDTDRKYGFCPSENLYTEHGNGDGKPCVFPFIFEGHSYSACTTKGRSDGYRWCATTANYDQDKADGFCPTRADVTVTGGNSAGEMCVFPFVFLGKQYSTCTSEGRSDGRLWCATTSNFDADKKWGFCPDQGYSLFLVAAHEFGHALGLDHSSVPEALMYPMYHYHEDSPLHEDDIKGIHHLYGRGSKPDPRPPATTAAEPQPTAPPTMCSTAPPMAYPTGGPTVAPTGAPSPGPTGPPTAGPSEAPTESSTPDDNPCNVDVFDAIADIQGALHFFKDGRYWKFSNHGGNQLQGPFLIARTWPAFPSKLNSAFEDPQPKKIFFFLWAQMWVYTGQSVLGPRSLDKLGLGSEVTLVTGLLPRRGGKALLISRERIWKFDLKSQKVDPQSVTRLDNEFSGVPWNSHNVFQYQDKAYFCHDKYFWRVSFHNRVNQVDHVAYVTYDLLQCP

Compound: c1cnc2c(c1)ccc1cccnc12 [1,10-phenanthroline]
- active enzyme bands / enzyme activity [1, 3]: did not appear
- active enzyme bands / enzyme activity ([1]; 10 mM in incubation buffer, conditioned media from 48 h cultures, listed as 1, 10-phenanthroline, 10000 µM): inactive
- active enzyme bands [2, 3]: did not appear

Compound: O=S(=O)(F)Cc1ccccc1 [phenylmethylsulfonyl fluoride]
- enzyme activity [1, 4]: did not inhibit
- enzyme activity ([1]; 2 mM in incubation buffer, conditioned media from 48 h cultures, listed as PMSF): not inhibited
- enzyme activity [2, 4]: did not inhibit

Compound: CCN1C(=O)C=CC1=O [N-ethylmaleimide]
- enzyme activity [1, 5]: did not inhibit
- enzyme activity ([1]; 5 mM in incubation buffer, conditioned media from 48 h cultures, listed as NEM): not inhibited
- enzyme activity [2, 5]: did not inhibit

Compound: O=C(O)CN(CCN(CC(=O)O)CC(=O)O)CC(=O)O [EDTA, ethylenediaminetetraacetic acid]
- active enzyme bands / enzyme activity [1]: did not appear
- active enzyme bands / enzyme activity ([1]; 10000 µM): inactive
- active enzyme bands [2]: did not appear

— patent EP0460016B1, “METASTASIS-ASSOCIATED COLLAGENOLYTIC METALLOPROTEINASES” (priority 1989, dated 1990)
